Nine compounds from PMC2690590, “Functional recombinant MHC class II molecules and high-throughput peptide-binding assays” (Immunome Research, 2009) can be followed below.

pIC50, pKd: −log10 of the molar value. Read-outs that look alike come from different tables or passages of the source. Where no end group is shown, it is not given here.

In one assay the target is DR1 (Homo sapiens, UniProt P01903+P01911, A100R/D57E/F55L/F60I/F76Y/I96L/L162R/M171V/P40L/Q125E/R42F/V115G/Y59C). Put plainly: Effects of additives on the refolding of DR1, spun column assay. In kind it is biochemical. To be noted: for Harmfull (to DR1 refolding): additive titrated in refolding buffer pH 8 without glycerol, 3 nM 125I YHA306-318, 80 nM DR1 α and β chains.
Assay [1] addresses T1, DR2a (DRA*0101/DRB5*0101) (Homo sapiens, UniProt P01903+Q30154).
T1 construct: DRA*01011-181LZFos; DRB5*01011-190LZJunBSP; made in house
Put plainly: Competitive LOCI peptide-MHC-II binding assay, DR2a. To be noted: for pIC50: pH 6-7.5, 48 h 18°C, read-out: DR2a Komp IC50; for IC50: DR2a Komp IC50 (nM).

For another assay, the target named is T2, I-E^d (Mus musculus, UniProt P01904+P01915).
T2 construct: I-E^dA1-191LZFos; I-E^dB1-198LZJunBSP; made in house
Put plainly: Direct LOCI peptide-MHC-II binding assay, I-E^d. Conditions: for Kd: I-E^D affinity (nM).

For the next assay, the target named is T3, DR4 (DRA*0101/DRB1*0401) (Homo sapiens, UniProt P01903+P01911, A100K/A169T/F76Y/I96L/K127E/L162R/M171V/N62H/P40V/Q125Y/R42H/S133A/S149N/S66Y/V115G/V209L/W38E).
T3 construct: DRA*01011-181LZFos; DRB1*04011-190LZJunBSP; made in house
Put plainly: Direct LOCI peptide-MHC-II binding assay, DR4. Conditions: for pKd: read-out: DR4 affinity; for Kd: DR4 affinity (nM).

Another assay concerns the target T4, DR3 (DRA*0101/DRB1*0301) (Homo sapiens, UniProt P01903+P01911, A100K/A102G/A103R/A169T/F55Y/I96L/K41T/L162R/M171V/P40S/Q125H/Q178H/Q39Y/R42S/S66N/T106N/T262R/W38E/Y61H).
T4 construct: DRA*01011-181LZFos; DRB1*03011-190LZJunBSP; made in house
The assay can be described thus: Direct LOCI peptide-MHC-II binding assay, DR3.

In assay [2] the target is DP401 (DPA1*0103/DPB1*0401) (Homo sapiens, UniProt P04440+P20036). The assay can be described thus: Direct LOCI peptide-MHC-II binding assay, DP401. To be noted: for pKd: read-out: DP401 affinity; for Kd: DP401 affinity (nM).
In assay [3] the target is T5, DRB3*0301 (DRA*0101/DRB3*0301) (Homo sapiens, UniProt P01903+P79483, A169T/A212P/D57E/G115V/L67V/Q178H/R103Q/R40L/Y55F).
T5 construct: DRA*01011-181LZFos; DRB3*03011-190LZJunBSP; made in house
Put plainly: Direct LOCI peptide-MHC-II binding assay, DRB3*0301.

Assay [4] deals with T6, DRB1*0813 (DRA*0101/DRB1*0813) (Homo sapiens, UniProt P01903+P01911, A100R/A103L/A169T/F76Y/H45Y/I96L/K41T/L162R/M171V/P40S/Q125H/Q178H/Q39Y/Q99D/R218S/R42G/S66Y/V115G/W38E).
T6 construct: DRA*01011-181LZFos; DRB1*08131-190LZJunBSP; made in house
Put plainly: Direct LOCI peptide-MHC-II binding assay, DRB1*0813.

Assay [5] concerns the target T1, DR2a (DRA*0101/DRB5*0101). The assay can be described thus: Direct LOCI peptide-MHC-II binding assay, DR2a.
The next assay has as its target DR1 (DRA*0101/DRB1*0101) (Homo sapiens, UniProt P01903+P01911, A100R/D57E/F55L/F60I/F76Y/I96L/L162R/M171V/P40L/Q125E/R42F/V115G/Y59C). The assay can be described thus: Competitive peptide-HLA-DR1 binding assay, radioactive spun column. To be noted: competition with 3 nM 125I labelled (Y)HA306–318; 80 nM DR1 α and β chain; 24 h; spun column; some ligand depletion expected; read-out: IC50.

Another assay addresses T7, DR4 (Homo sapiens, UniProt P01903+P01911).
T7 construct: made in house
Put plainly: ELISA-based peptide-MHC class II binding assay, DR4. To be noted: ELISA, L243 detection; α/β 31 and 1 nM; refolding buffer pH 8; 24 h 18°C; peptide concentration in nM per legend; read-out: EC50 DR4. In general terms: In an ELISA, binding on a coated surface is turned into a signal by an enzyme label.

The next assay concerns the target T8, DR2 (DR2a) (Homo sapiens, UniProt P01903+Q30154).
T8 construct: DR2a: DRA*0101_1–181/DRB5*0101_1–190; made in house
The assay can be described thus: ELISA-based peptide-MHC class II binding assay, DR2. To be noted: ELISA, L243 detection; α/β 31 and 1 nM; refolding buffer pH 8; 24 h 18°C; peptide concentration in nM per legend; read-out: EC50 DR2.

Where [6] appears, read: refolding buffer pH 8 without glycerol, 3 nM 125I YHA306-318, 80 nM DR1.

One may read the pIC50 as the IC50 on a negative log10 scale, so that one unit is a factor of ten. The term EC50 denotes the concentration needed to bring the measured effect to its halfway point. As a reminder, the IC50 is the point on the concentration scale where inhibition reaches its midpoint. One may read the Kd as the constant that tells how readily two partners part at equilibrium. Higher therefore signals a looser complex.

As for `CCCCCCCCCCCC(=O)N(C)CC(=O)O` [N-Laurylsarcosin], on DR1, the “Harmfull (to DR1 refolding)” value was “Yes”. Besides, on DR1 (setting [6]), the “additive concentration at 50 % signal reduction” value stood at 0.01 Vol %.
As for `OCC(O)CO` [Glycerol], the “Harmfull (to DR1 refolding)” value on DR1 was “No”. For the same compound, the “effect on DR1 refolding (in words)” value at DR1 (refolding buffer pH 8, 3 nM 125I YHA306-318, 80 nM DR1) was “Enhances folding in whole range tested”.
For `[Cl-].[Na+]` [NaCl, Sodium Chloride], the “Harmfull (to DR1 refolding)” value at DR1 was “Yes”. For the same compound, at DR1 (setting [6]), the “additive concentration at 50 % signal reduction” value worked out at 100 mM.
For the compound `NC(N)=O` [Urea], the “Harmfull (to DR1 refolding)” value on DR1 is listed as “Yes/No”. In addition, at DR1 (setting [6]), the “Ok up to (harmful at higher concentrations)” value is “Ok up to 400 mM. Harmfull at higher concentrations”.
For RMIAISAKV [Pox.o42.con.im. A2], in assay [1], the pIC50 was 5.70. For the same compound, the pKd on I-E^d (48 h 18°C, read-out: I-E^D affinity) was less than 5.30; at DR4 (DRA*0101/DRB1*0401) (pH 6-7.5, 48 h 18°C), less than 5.30; on DR3 (DRA*0101/DRB1*0301) (pH 6-7, 48 h 18°C, read-out: DR3 affinity), 6.29; in assay [2] (pH 7, 48 h 18°C), less than 5.30; in assay [3] (pH 7, 48 h 18°C, read-out: DRB3*0301 affinity) it was 5.90; in [4] (pH 6-7.5, 48 h 18°C, read-out: DRB1*0813 affinity), 6.57. The pKd in assay [5] (pH 6, 48 h 18°C, read-out: DR2a pH6 affinity) is 5.78.
In the case of `CSCC[C@H](NC(=O)[C@@H]1CCCN1C(=O)[C@H](CC(C)C)NC(=O)[C@H](C)NC(=O)[C@H](CCC(N)=O)NC(=O)[C@H](CCSC)NC(=O)[C@H](CC(C)C)NC(=O)[C@H](CC(C)C)NC(=O)[C@@H]1CCCN1C(=O)[C@@H](NC(=O)[C@H](C)NC(=O)[C@H](CCSC)NC(=O)[C@H](CCCNC(=N)N)NC(=O)[C@H](CCSC)NC(=O)[C@H](CCCCN)NC(=O)[C@H](CO)NC(=O)[C@@H](NC(=O)[C@@H]1CCCN1C(=O)[C@H](CCCCN)NC(=O)[C@@H]1CCCN1C(=O)[C@@H]1CCCN1C(=O)[C@H](CCCCN)NC(=O)[C@@H]1CCCN1C(=O)[C@H](CC(C)C)NC(=O)[C@@H](N)Cc1ccc(O)cc1)C(C)C)[C@@H](C)O)C(=O)O` [CLIP], the pIC50 in assay [1] (competitive LOCI, 4 nM biotin-PEG-HA306–318 agonist, β chain without biotin, α/β 13/5 nM, L243, average of 2–4 measurements) was 9.00; at DR1 (DRA*0101/DRB1*0101), 7.40. Moreover, the pKd at DR4 (DRA*0101/DRB1*0401) is 8.70; at DR3 (DRA*0101/DRB1*0301) (read-out: DR3 affinity) it was 9.00; in [2] it was 8.40; in [3] (read-out: DRB3*0301 affinity) it was 9.00; in assay [4] (read-out: DRB1*0813 affinity), 8.70; in assay [5] (read-out: DR2a pH6 affinity), 9.00. Besides, the EC50 at DR4 worked out at 9.7 nM; at DR2 (DR2a), 0.7 nM.
Consider `C[C@H](CCC(=O)O)[C@H]1CC[C@H]2[C@@H]3CC[C@@H]4C[C@H](O)CC[C@]4(C)[C@H]3C[C@H](O)[C@]12C` [DOC, Deoxycholate], for which the “Harmfull (to DR1 refolding)” value at DR1 is reported as “Yes/No”. The “Positive effect up to (harmful at higher concentrations)” value on DR1 (setting [6]) is given as “Positive effect up to 0.02 % Harmfull at higher concentrations”.
In turn, GVTYEIDLTNKN [Mycobact leprea] came in with an IC50 in assay [1] of more than 5000 nM. In addition, the Kd on I-E^d is more than 5000 nM; on DR4 (DRA*0101/DRB1*0401), 2550 nM; in assay [2] it was more than 5000 nM. Besides, the pKd was 5.36 at DR3 (DRA*0101/DRB1*0301), less than 5.30 in [3], less than 5.30 in assay [4] and less than 5.30 in [5].
On to PIVQNIQGQMVHQ [HIV], for which, in assay [1], the IC50 amounted to 852 nM. For the same compound, the equilibrium dissociation constant (Kd) (at I-E^d; at DR4 (DRA*0101/DRB1*0401); in assay [2]) was more than 5000 nM in each case. Further, the pKd at DR3 (DRA*0101/DRB1*0301) is 6.33; in [3] it was 7.64; in [4] it was less than 5.30; in assay [5] it was 6.35.
